Reference: patent US4477443A, “Tylosin derivatives, their preparation and pharmaceutical compositions containing them” (Zaidan Hojin Biselbutsu Kagaku Kenkyu Kai (Microbial …, priority 1981, dated 1984)
≈ marks a conversion by molar mass, not a printed value. Like-named read-outs stand apart in the source and are kept apart here.

Tests used:
Experiment in all cases: antimicrobial activity (MIC), Table I
Type in all cases: cell-based
Staph. aureus MS 9861 = settings: Staphylococcus aureus, MS9861; Staph. aureus MS 9861; read-out: MIC
E. coli K-12 R-5 = settings: Escherichia coli, K12R5; E. coli K-12 R-5; read-out: MIC
E. coli K-12 ML 1410 = settings: Escherichia coli, K12ML1410
Staph. aureus 193 = settings: Staphylococcus aureus; Staph. aureus 193; read-out: MIC
[1] = test system: Shigella dysenteriae JS 11910; settings: JS11910
Staph. aureus 209 P = settings: Staphylococcus aureus; Staph. aureus 209 P; read-out: MIC
Pro. vulgaris OX-19 = settings: Proteus vulgaris, OX19; Pro. vulgaris OX-19; read-out: MIC
Kleb. pneumoniae PCI 602 = settings: Klebsiella pneumoniae, PCI602; Kleb. pneumoniae PCI 602; read-out: MIC
B. subtilis NRRL B-558 = settings: Bacillus subtilis, NRRLB558; B. subtilis NRRL B-558; read-out: MIC
Sarcina lutea PCI 1001 = settings: Micrococcus luteus, PCI1001; Sarcina lutea PCI 1001; read-out: MIC
Sal. enteritidis 1891 = settings: Salmonella enterica; Sal. enteritidis 1891; read-out: MIC
E. coli K-12 = settings: Escherichia coli, K12; E. coli K-12; read-out: MIC
E. coli NIHJ = settings: Escherichia coli; E. coli NIHJ; read-out: MIC
Coryn. bovis 1810 = settings: Corynebacterium bovis; Coryn. bovis 1810; read-out: MIC
[2] = E. coli K-12 ML 1410, read-out: MIC

Compound | MIC (Staph. aureus MS 9861) [µg/mL] | MIC (E. coli K-12 R-5) [µg/mL] | MIC (E. coli K-12 ML 1410; [2]) [µg/mL] | MIC (Staph. aureus 193) [µg/mL] | MIC [1] [µg/mL] | MIC (Staph. aureus 209 P) [µg/mL] | MIC (Pro. vulgaris OX-19) [µg/mL] | MIC (Kleb. pneumoniae PCI 602) [µg/mL] | MIC (B. subtilis NRRL B-558) [µg/mL] | MIC (Sarcina lutea PCI 1001) [µg/mL] | MIC (Sal. enteritidis 1891) [µg/mL] | MIC (E. coli K-12) [µg/mL] | MIC (E. coli NIHJ) [µg/mL] | MIC (Coryn. bovis 1810) [µg/mL] | MIC (E. coli K-12 ML 1410) [µg/mL]
CCC1OC(=O)CC(O)C(C)C(OC2OC(C)C(O)C(N(C)C)C2O)C(CC=O)CC(C)C(=O)C=CC(C)=CC1CN(C)C (stereo not drawn) [Example 4, 23-deoxy-23-dimethylaminomycaminosyl tylonolide] | 1.56 (≈ 2.5 µM) | 1.56 (≈ 2.5 µM) | 1.56 (≈ 2.5 µM) | 0.39 (≈ 0.624 µM) | 0.39 (≈ 0.624 µM) | 0.2 (≈ 0.32 µM) | 1.56 (≈ 2.5 µM) | 0.78 (≈ 1.25 µM) | 0.78 (≈ 1.25 µM) | < 0.2 | 1.56 (≈ 2.5 µM) | 1.56 (≈ 2.5 µM) | 0.78 (≈ 1.25 µM) | 0.78 (≈ 1.25 µM) | 
CCC1OC(=O)CC(O)C(C)C(OC2OC(C)CC(N(C)C)C2O)C(CC=O)CC(C)C(=O)C=CC(C)=CC1CN1CCCC1 (stereo not drawn) [Example 16, 23,4'-dideoxy-23-pyrrolidinomycaminosyl tylonolide] | 3.12 (≈ 4.91 µM) | 1.56 (≈ 2.46 µM) |  | 1.56 (≈ 2.46 µM) | < 0.2 | 0.39 (≈ 0.614 µM) | 1.56 (≈ 2.46 µM) | 0.78 (≈ 1.23 µM) | 0.78 (≈ 1.23 µM) | < 0.2 | 0.39 (≈ 0.614 µM) | 3.12 (≈ 4.91 µM) | 1.56 (≈ 2.46 µM) | 0.39 (≈ 0.614 µM) | 3.12 (≈ 4.91 µM)
CCC1OC(=O)CC(O)C(C)C(OC2OC(C)CC(N(C)C)C2O)C(CC=O)CC(C)C(=O)C=CC(C)=CC1CN1CCCCC1 (stereo not drawn) [Example 17, 23,4'-dideoxy-23-piperidinomycaminosyl tylonolide] | 1.56 (≈ 2.4 µM) | 1.56 (≈ 2.4 µM) | 0.78 (≈ 1.2 µM) | 0.78 (≈ 1.2 µM) | < 0.2 | 0.39 (≈ 0.601 µM) | 0.78 (≈ 1.2 µM) | 1.56 (≈ 2.4 µM) | 0.39 (≈ 0.601 µM) | < 0.2 | 0.39 (≈ 0.601 µM) | 3.12 (≈ 4.81 µM) | 0.78 (≈ 1.2 µM) | < 0.2 | 
CCC1OC(=O)CC(O)C(C)C(OC2OC(C)C(O)C(N(C)C)C2O)C(CC=O)CC(C)C(=O)C=CC(C)=CC1CN(C)Cc1ccccc1 (stereo not drawn) [Example 25, 23-deoxy-23-(N-methylbenzylamino)mycaminosyl tylonolide] | 0.2 (≈ 0.285 µM) | 6.25 (≈ 8.92 µM) |  | 0.2 (≈ 0.285 µM) | 3.12 (≈ 4.45 µM) | < 0.2 |  | 0.39 (≈ 0.556 µM) | 3.12 (≈ 4.45 µM) | 0.39 (≈ 0.556 µM) | 1.56 (≈ 2.23 µM) | 3.12 (≈ 4.45 µM) | 1.56 (≈ 2.23 µM) | < 0.2 | 
CCC1OC(=O)CC(O)C(C)C(OC2OC(C)C(O)C(N(C)C)C2O)C(CC=O)CC(C)C(=O)C=CC(C)=CC1CN(C)CCc1ccccc1 (stereo not drawn) [Example 26, 23-deoxy-23-(N-methylphenethylamino)mycaminosyl tylonolide] | 12.5 (≈ 17.5 µM) | 12.5 (≈ 17.5 µM) |  | 0.2 (≈ 0.28 µM) | 3.12 (≈ 4.36 µM) | < 0.2 |  | 0.78 (≈ 1.09 µM) | 50 (≈ 69.9 µM) | < 0.2 | 3.12 (≈ 4.36 µM) | 12.5 (≈ 17.5 µM) | 3.12 (≈ 4.36 µM) | < 0.2 | 
CCC1OC(=O)CC(O)C(C)C(OC2OC(C)C(O)C(N(C)C)C2O)C(CC=O)CC(C)C(=O)C=CC(C)=CC1CN(C)C1CCCCC1 (stereo not drawn) [Example 27, 23-deoxy-23-(N-methylcyclohexylamino)mycaminosyl tylonolide] | 3.12 (≈ 4.5 µM) | 3.12 (≈ 4.5 µM) |  | 0.78 (≈ 1.13 µM) | < 0.2 | < 0.2 |  | < 0.2 | < 0.2 | < 0.2 | < 0.2 | 3.12 (≈ 4.5 µM) | 0.78 (≈ 1.13 µM) | < 0.2 | 
CCC1OC(=O)CC(O)C(C)C(OC2OC(C)CC(N(C)C)C2O)C(CC=O)CC(C)C(=O)C=CC(C)=CC1CN1CCC(=O)CC1 (stereo not drawn) [Example 28, 23,4'-dideoxy-23-(4-pipridone)mycaminosyl tylonolide] | 0.39 (≈ 0.588 µM) | 6.25 (≈ 9.43 µM) |  | < 0.2 | 0.78 (≈ 1.18 µM) | < 0.2 |  | 1.56 (≈ 2.35 µM) | < 0.2 | < 0.2 | 6.25 (≈ 9.43 µM) | 6.25 (≈ 9.43 µM) | 3.12 (≈ 4.71 µM) | 0.39 (≈ 0.588 µM) | 
